ChEMBL document CHEMBL1201862, “PubChem BioAssay data set” (2004)
Activity calls are given as the source filed them.

How the values were obtained:
[1] = target: Voltage-dependent T-type calcium channel subunit alpha-1H (Homo sapiens, UniProt O95180); assay type: functional;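 also: channel activity triggered by adding a high calcium stimulation buffer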
Nonstructural protein 1 = Nonstructural protein 1 (Influenza A virus, UniProt Q194T2); assay type: functional, Influenza A virus (A/California/07/2009(H1N1))
[2] = target: T1, Short transient receptor potential channel 4 (Mus musculus, UniProt Q9QUQ5); experiment: mouse TRPC4 channel inhibitors, dose response, cell-based, HEK293 TRPC4/mu-opioid, Fluo-4 calcium (AID 434942); assay type: functional;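 also: potency of inhibitors blocking the TRPC4 calcium response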
T1 sequence (Q9QUQ5 whole entry): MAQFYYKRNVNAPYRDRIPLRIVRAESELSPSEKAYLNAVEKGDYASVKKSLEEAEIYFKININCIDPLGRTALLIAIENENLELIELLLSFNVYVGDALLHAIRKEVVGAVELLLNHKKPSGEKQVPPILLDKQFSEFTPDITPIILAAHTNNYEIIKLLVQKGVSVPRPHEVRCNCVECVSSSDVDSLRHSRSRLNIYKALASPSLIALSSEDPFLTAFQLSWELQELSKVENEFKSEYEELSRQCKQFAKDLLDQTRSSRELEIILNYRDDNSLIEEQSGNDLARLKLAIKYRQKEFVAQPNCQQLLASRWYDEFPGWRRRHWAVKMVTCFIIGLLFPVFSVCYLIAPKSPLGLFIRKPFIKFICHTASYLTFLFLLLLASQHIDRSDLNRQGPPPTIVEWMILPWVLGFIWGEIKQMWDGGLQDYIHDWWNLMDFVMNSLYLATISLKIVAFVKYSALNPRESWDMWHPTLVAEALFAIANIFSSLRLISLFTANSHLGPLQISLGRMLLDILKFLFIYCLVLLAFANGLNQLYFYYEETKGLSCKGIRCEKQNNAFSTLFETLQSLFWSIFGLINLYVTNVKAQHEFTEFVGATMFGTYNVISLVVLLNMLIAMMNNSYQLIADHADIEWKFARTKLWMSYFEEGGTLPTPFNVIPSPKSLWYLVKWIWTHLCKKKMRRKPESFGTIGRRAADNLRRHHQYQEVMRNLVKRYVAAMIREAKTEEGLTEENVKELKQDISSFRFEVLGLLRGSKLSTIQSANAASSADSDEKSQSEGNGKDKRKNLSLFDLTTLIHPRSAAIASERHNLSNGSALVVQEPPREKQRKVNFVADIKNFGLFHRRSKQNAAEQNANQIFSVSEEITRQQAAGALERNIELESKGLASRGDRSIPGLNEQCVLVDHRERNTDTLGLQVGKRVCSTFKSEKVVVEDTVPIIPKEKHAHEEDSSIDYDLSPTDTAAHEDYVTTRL

[3] = target: T2, RNA-binding protein pos-1 (Caenorhabditis elegans, UniProt G5EF15); experiment: inhibitors of POS-1/mex-3 RNA binding, dose response, biochemical, fluorescence polarization (AID 1964);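 also: purified POS-1 fused to maltose binding protein made in E. coli; potency of compounds blocking POS-1 binding to fluorescent RNA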
T2 sequence (G5EF15 whole entry): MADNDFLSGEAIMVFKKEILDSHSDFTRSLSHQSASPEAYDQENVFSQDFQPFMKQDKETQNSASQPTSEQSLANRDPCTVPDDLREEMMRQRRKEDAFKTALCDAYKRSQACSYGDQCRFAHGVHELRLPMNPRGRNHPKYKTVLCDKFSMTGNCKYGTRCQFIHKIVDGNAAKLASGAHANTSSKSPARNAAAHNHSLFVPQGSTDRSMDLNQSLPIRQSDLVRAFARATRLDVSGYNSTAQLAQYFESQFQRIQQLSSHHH

[4] = target: T3, Zinc finger protein mex-5 (Caenorhabditis elegans, UniProt Q9XUB2); experiment: MEX-5/TCR-2 RNA interaction inhibitors, dose response, biochemical, C. elegans, fluorescence polarization (AID 1960)
T3 sequence (Q9XUB2 whole entry): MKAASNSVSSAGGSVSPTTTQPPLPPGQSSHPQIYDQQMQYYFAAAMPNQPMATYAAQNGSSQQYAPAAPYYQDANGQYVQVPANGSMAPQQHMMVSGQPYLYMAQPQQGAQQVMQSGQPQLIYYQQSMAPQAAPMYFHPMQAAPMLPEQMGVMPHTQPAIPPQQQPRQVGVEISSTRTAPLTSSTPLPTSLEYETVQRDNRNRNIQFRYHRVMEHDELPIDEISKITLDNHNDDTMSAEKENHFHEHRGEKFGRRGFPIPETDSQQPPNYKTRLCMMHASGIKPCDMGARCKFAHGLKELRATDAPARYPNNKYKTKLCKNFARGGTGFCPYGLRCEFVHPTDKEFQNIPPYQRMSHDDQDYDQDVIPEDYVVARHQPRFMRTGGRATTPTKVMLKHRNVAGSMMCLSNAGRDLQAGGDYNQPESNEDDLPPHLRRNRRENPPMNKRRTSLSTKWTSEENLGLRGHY

[5] = target: G-protein coupled receptor 35 (Homo sapiens, UniProt Q9HC97); experiment: GPR35 antagonists blocking zaprinast-driven arrestin recruitment, primary screen, imaging, U2OS, beta-arrestin-GFP, zaprinast agonist (AID 2058); assay type: functional;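 also: antagonist potency meaning inhibition of agonist-induced arrestin redistribution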
[6] = growth suppression of beta-catenin-knockout colon cells, dose response, cell-based, HCT116, human colon tumor (AID 1045); assay type: functional;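 also: HCT116 colon tumor cells with beta catenin knocked out; cells exposed to compound for 60 hours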
[7] = growth suppression of PTEN-null colon cells, dose response, cell-based, HCT116 PTEN knockout (AID 1047); assay type: functional;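 also: HCT116 colon tumor cells with PTEN knocked out; cells exposed to compound for 60 hours before readout; potency for loss of cell viability measured by luminescence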
[8] = target: T1, Short transient receptor potential channel 4; experiment: mouse TRPC4 channel activators, dose response, cell-based, HEK293 TRPC4/mu-opioid, Fluo-4 calcium (AID 434937); assay type: functional
Hexokinase = target: T4, Hexokinase (Trypanosoma brucei, UniProt Q38C41); experiment: Confirmation assay for inhibitors of Trypanosoma brucei hexokinase 1-Analogue-first series. [Related pubchem assays (depositor defined):AID1430, AID1632, AID2516, AID2560, AID2579, AID2600, AID449725, AID492951]; assay type: functional
T4 sequence (Q38C41 whole entry): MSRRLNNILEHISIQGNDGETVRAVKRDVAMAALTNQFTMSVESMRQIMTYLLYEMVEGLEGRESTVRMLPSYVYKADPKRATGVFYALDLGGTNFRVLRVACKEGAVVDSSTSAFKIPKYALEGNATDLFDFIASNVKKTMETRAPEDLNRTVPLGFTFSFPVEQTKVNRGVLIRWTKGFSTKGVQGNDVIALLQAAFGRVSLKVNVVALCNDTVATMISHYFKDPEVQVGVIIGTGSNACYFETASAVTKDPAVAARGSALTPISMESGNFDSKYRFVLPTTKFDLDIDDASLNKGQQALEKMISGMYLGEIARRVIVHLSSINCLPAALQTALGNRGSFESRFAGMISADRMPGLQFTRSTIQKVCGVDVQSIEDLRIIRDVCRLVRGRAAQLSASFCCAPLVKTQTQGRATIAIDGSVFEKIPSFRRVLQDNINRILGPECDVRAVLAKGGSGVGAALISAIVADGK

[9] = target: T5, Endoribonuclease toxin MazF (Escherichia coli K-12, UniProt P0AE70); experiment: MazF toxin RNase activators, dose response, biochemical, fluorescence, single-stranded RNA substrate, uHTS hits (AID 588481); assay type: functional
T5 sequence (P0AE70 whole entry): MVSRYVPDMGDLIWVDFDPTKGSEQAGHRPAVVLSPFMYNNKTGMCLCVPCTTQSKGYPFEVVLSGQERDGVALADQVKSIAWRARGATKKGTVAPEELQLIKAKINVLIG

[10] = target: T5, Endoribonuclease toxin MazF; experiment: fluorescent RNA oligo signal without MazF, dose response, counter-screen for MazEF activator project, biochemical, fluorescence, single-stranded RNase substrate (AID 588502); assay type: functional
[11] = target: T6, Corticotropin-releasing factor receptor 2/Corticotropin-releasing factor-binding protein (Homo sapiens, UniProt P24387+Q13324); experiment: activators of CRF receptor 2 with binding protein – uHTS hits, confirmation (AID 602473); assay type: functional; conditions: read-out: EC50_Mean
T6 sequence (Q13324 whole entry): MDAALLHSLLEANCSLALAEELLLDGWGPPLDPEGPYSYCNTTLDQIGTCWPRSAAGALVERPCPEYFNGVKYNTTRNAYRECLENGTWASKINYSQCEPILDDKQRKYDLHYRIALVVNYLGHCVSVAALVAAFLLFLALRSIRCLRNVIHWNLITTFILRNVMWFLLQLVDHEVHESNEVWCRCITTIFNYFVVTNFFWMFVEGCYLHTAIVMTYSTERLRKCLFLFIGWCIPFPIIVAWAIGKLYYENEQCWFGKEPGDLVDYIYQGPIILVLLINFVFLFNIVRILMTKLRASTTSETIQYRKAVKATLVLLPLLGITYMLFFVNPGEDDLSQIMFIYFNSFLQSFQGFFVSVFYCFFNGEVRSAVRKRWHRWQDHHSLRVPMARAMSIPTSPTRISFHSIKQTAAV
T6 sequence (P24387 whole entry): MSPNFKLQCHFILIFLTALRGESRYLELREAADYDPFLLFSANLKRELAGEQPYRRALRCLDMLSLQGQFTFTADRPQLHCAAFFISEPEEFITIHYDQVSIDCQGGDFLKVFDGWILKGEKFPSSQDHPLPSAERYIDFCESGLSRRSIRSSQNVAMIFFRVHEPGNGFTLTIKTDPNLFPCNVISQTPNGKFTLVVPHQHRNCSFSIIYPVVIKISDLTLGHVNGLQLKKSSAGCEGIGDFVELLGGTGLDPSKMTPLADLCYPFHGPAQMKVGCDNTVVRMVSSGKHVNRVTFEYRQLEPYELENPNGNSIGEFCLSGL

Sequence of Voltage-dependent T-type calcium channel subunit alpha-1H (O95180 whole entry): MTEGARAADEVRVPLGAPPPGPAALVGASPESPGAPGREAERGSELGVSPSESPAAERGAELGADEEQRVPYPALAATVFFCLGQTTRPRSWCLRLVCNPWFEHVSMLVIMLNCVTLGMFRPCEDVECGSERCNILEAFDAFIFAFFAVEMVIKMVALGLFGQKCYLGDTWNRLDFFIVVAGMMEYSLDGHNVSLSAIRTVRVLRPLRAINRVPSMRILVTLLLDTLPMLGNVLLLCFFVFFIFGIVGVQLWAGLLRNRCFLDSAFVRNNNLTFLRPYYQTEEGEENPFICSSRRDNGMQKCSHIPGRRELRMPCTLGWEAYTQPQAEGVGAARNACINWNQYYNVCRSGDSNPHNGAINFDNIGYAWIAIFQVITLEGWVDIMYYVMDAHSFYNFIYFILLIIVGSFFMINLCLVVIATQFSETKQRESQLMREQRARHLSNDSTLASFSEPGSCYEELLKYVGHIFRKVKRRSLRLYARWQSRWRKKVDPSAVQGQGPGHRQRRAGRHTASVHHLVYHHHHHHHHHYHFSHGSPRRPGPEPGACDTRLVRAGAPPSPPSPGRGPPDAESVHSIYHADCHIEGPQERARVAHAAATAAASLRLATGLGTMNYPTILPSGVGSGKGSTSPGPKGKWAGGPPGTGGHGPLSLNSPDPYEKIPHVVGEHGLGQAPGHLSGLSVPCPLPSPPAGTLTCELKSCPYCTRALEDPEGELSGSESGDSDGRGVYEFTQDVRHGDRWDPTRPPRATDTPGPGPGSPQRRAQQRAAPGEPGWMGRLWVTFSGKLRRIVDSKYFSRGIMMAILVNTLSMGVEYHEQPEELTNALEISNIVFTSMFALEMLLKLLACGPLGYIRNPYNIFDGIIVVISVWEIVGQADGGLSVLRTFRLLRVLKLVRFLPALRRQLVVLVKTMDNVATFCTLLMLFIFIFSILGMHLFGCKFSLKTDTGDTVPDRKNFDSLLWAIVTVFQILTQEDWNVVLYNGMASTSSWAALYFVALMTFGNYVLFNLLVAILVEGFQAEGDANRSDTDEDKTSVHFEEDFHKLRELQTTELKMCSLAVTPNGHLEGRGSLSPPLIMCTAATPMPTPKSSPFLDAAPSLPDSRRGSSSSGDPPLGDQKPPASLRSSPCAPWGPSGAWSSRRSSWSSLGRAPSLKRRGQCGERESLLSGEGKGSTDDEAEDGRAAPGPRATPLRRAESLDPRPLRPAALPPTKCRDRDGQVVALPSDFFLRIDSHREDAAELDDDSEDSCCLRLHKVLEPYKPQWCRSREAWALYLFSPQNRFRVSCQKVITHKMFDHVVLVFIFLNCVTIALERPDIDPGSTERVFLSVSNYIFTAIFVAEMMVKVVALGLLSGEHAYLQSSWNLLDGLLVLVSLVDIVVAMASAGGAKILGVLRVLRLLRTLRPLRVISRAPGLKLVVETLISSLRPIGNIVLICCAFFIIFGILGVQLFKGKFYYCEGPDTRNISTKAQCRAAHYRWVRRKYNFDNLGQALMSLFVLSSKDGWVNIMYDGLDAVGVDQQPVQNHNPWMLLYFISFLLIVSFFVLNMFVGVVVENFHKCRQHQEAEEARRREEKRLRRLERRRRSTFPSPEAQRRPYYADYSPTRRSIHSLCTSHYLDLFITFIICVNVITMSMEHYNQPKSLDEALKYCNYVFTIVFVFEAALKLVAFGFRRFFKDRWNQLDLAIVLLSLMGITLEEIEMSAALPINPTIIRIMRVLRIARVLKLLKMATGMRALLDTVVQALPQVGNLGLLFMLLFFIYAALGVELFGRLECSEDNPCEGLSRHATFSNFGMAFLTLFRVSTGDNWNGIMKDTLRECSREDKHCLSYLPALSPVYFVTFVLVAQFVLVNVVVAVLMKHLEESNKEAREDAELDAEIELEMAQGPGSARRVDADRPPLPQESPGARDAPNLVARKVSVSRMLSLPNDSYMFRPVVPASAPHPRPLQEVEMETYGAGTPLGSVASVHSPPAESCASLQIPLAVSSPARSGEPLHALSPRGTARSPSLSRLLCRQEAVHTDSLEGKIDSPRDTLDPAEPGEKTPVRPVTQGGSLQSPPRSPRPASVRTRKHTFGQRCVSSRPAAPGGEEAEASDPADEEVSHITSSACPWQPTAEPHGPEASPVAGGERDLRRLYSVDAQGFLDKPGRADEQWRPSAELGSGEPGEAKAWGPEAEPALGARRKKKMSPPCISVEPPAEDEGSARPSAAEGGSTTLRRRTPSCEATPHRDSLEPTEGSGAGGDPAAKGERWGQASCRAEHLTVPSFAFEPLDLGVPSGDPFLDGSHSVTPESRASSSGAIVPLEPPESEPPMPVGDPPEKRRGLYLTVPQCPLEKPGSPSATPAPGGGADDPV
Sequence of G-protein coupled receptor 35 (Q9HC97 whole entry): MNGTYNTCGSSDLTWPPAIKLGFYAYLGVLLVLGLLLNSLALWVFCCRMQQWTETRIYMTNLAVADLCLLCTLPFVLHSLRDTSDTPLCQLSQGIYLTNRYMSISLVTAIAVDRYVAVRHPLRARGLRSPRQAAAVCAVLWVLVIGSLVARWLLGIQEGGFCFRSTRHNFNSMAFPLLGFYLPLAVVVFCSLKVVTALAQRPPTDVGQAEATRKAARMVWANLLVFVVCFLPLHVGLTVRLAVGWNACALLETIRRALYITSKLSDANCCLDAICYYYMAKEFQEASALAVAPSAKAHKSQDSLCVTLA
Sequence of Nonstructural protein 1 (Q194T2 whole entry): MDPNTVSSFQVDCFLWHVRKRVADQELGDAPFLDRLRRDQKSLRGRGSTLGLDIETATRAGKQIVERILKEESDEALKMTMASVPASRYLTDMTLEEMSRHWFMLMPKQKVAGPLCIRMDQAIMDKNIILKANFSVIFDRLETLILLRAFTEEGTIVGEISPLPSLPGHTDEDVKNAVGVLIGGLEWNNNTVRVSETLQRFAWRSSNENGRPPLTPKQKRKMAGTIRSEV

In the case of `Cc1ccccc1NC(=O)c1sc2nc3c(c(-c4ccco4)c2c1N)CCCC3`, the EC50 [1] is reported as 10.1 µM (active).

For `CCOC(=O)C1CCCN(S(=O)(=O)c2ccc(OC)c3ccccc23)C1` (stereo not drawn), the EC50 [1] was 0.647 µM (active).

In the case of `CN(C)c1ccc(NC(=O)CC(NCc2ccccn2)C(=O)O)cc1` (stereo not drawn), the IC50 (Nonstructural protein 1) is reported as 1.51 µM (active).

In the case of `CCCCc1nc(CN2CCCC(C(=O)c3ccc(SC)cc3)C2)c[nH]1` (stereo not drawn), the EC50 [2] is reported as 1.88 µM (active).

In the case of `O=C(c1cccc(C(=O)N2CCN(c3ccccc3)CC2)c1)N1CCN(c2ccccc2)CC1`, the EC50 [2] is reported as 1.06 µM (active).

For `CCN(CC)c1ccc(/C=C(/C#N)c2nc3ccccc3[nH]2)c(OC(C)C)c1`, the EC50 [3] was 3.96 µM (active), the EC50 [4] was 8.13 µM (active) and the EC50 [1] was 3.84 µM (active). For the same molecule, the IC50 [5] was 1.19 µM (active), the EC50 [6] was 11.1 µM (active) and the EC50 [7] was 11.2 µM (active).

In the case of `CN(C)CCN(C(=O)C1CCCCC1)c1nc2cc3c(cc2s1)OCO3`, the EC50 [8] is reported as 6.68 µM (active) and the EC50 [2] is reported as 2.66 µM (active).

For `COc1ccc(C(=O)Nc2cc(-c3ccccc3)ccc2C(=O)O)cc1`, the IC50 (Hexokinase) was > 25 µM (inactive).

With `COc1ccc(C(=O)Nc2cc(Cl)ccc2O)cc1` the IC50 (Hexokinase) was 25 µM (inactive).

In the case of `O=C(Nc1cc(Cl)ccc1C(=O)O)c1ccc(Cc2ccccc2)cc1`, the IC50 (Hexokinase) is reported as 13.6 µM (active).

In the case of `Cc1ccc(S(=O)(=O)Nc2cccc(C(=O)NCC(c3ccco3)N3CCCC3)c2)cc1F` (stereo not drawn), the EC50 [8] is reported as 1.5 µM (active) and the EC50 [2] is reported as 0.149 µM (active).

For `COc1ccc(/C=c2\s/c(=C/C(=O)c3ccc(C)cc3)[nH]c2=O)c(OC)c1`, the EC50 [9] was > 99 µM (inactive), the IC50 [5] was 1.76 µM (active) and the EC50 [10] was > 99 µM (inactive). For the same molecule, the EC50 [11] was 10.7 µM (active).

In the case of `COc1ccc(NC(=O)c2ccccc2C(=O)O)cc1`, the IC50 (Hexokinase) is reported as > 25 µM (inactive).
